Test results as given in patent US20110263629A1, “AMIDES OF DIAZABICYCLOOCTANES AND USES THEREOF” (Targacept, Inc., priority 2008, published 2011).
Like-named read-outs stand apart in the source and are kept apart here.

Experiments:
rat α7 nAChR subtype = molecular target: T1, rat α7 nAChR subtype (Rattus norvegicus, UniProt Q05941); assay: Radioligand binding ([3H]MLA) at α7 nAChR, rat hippocampus membranes
T1 construct: Preparation of membranes from rat hippocampus; from tissue; host or cells: rat hippocampus membranes
T1 sequence (Q05941 23-502): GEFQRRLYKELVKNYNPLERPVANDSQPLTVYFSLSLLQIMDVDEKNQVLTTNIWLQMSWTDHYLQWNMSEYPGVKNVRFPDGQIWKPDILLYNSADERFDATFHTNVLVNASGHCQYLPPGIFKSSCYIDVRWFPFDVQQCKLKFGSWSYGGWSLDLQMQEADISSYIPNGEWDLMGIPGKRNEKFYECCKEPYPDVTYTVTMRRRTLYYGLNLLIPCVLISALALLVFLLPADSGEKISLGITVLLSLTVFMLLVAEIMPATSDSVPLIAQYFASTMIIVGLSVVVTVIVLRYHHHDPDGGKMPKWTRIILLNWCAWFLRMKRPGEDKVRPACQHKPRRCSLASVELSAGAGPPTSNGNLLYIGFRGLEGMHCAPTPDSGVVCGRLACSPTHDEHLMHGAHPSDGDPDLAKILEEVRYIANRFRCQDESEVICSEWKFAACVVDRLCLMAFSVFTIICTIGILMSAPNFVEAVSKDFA
Experimental: Preparation of membranes from rat hippocampus: Rats (female, Sprague-Dawley), weighing 150-250 g, were maintained on a 12 h light/dark cycle and were allowed free access to water and food supplied by PMI Nutrition International, Inc. Animals were anesthetized with 70% CO2, then decapitated. Brains were removed and placed on an ice-cold platform. The hippocampus was removed and placed in 10 volumes (weight:volume) of ice-cold preparative buffer (137 mM NaCl, 10.7 mM KCl, 5.8 mM KH2PO4, 8 mM Na2HPO4, 20 mM HEPES (free acid), 5 mM iodoacetamide, 1.6 mM EDTA, pH 7.4); PMSF, dissolved in methanol to a final concentration of 100 μM, was added and the tissue suspension was homogenized by Polytron. The homogenate was centrifuged at 18,000×g for 20 min at 4° C. and the resulting pellet was re-suspended in 10 volumes of ice-cold water. After 60 min incubation on ice, a new pellet was collected by centrifugation at 18,000×g for 20 min at 4° C. The final pellet was re-suspended in 10 volumes of buffer and stored at −20° C.
On the day of the assay, tissue was thawed, centrifuged at 18,000×g for 20 min, and then re-suspended in ice-cold PBS (Dulbecco's Phosphate Buffered Saline, 138 mM NaCl, 2.67 mM KCl, 1.47 mM KH2PO4, 8.1 mM Na2HPO4, 0.9 mM CaCl2, 0.5 mM MgCl2, Invitrogen/Gibco, pH 7.4) to a final concentration of approximately 2 mg protein/mL. Protein was determined by the method of Lowry et al., J. Biol. Chem. 193: 265 (1951), herein incorporated by reference, using bovine serum albumin as the standard.
Assay: The binding of [^3H]MLA was measured using a modification of the methods of Davies et al., Neuropharmacol. 38: 679 (1999), herein incorporated by reference. [^3H]MLA (Specific Activity=25-35 Ci/mmol) was obtained from Tocris. The binding of [^3H]MLA was determined using a 2 h incubation at 21° C. Incubations were conducted in 48-well micro-titre plates and contained about 200 μg of protein per well in a final incubation volume of 300 μL. The incubation buffer was PBS and the final concentration of [^3H]MLA was 5 nM. The binding reaction was terminated by filtration of the protein containing bound ligand onto glass fiber filters (GF/B, Brandel) using a Brandel Tissue Harvester at room temperature. Filters were soaked in de-ionized water containing 0.33% polyethyleneimine to reduce non-specific binding. Each filter was washed with PBS (3×1 mL) at room temperature. Non-specific binding was determined by inclusion of 50 μM non-radioactive MLA in selected wells.
The inhibition of [^3H]MLA binding by test compounds was determined by including seven different concentrations of the test compound in selected wells. Each concentration was replicated in triplicate. IC50 values were estimated as the concentration of compound that inhibited 50 percent of specific [^3H]MLA binding. Inhibition constants (Ki values), reported in nM, were calculated from the IC50 values using the method of Cheng et al., Biochem. Pharmacol. 22: 3099-3108 (1973), herein incorporated by reference.

human α4β2 nAChR subtype = molecular target: T2, human α4β2 nAChR subtype (Homo sapiens, UniProt P17787+P43681); assay: Radioligand binding ([3H]nicotine) at human α4β2 nAChR, SH-EP1/human α4β2 clonal cell membranes; conditions: read-out: Human α4β2 Ki
T2 construct: expressed in transfected cells; host or cells: SH-EP1 clonal cells expressing human α4β2
T2 sequence (P43681 29-627 limits assumed): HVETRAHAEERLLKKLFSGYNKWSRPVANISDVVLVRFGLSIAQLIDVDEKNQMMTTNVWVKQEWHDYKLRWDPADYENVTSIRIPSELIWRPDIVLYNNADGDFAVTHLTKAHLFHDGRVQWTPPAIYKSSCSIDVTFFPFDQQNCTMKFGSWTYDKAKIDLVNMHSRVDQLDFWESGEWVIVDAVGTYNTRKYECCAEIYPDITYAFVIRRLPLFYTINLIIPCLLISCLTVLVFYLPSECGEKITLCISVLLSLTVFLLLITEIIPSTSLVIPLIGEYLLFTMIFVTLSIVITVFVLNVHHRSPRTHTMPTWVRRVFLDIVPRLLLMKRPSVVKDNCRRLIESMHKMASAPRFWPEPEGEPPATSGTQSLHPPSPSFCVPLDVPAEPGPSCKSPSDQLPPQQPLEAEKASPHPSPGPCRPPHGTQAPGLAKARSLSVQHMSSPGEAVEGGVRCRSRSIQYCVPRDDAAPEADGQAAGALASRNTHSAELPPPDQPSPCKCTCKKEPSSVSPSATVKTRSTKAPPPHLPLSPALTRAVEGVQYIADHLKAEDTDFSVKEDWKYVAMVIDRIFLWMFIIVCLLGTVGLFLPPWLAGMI
T2 sequence (P17787 26-502): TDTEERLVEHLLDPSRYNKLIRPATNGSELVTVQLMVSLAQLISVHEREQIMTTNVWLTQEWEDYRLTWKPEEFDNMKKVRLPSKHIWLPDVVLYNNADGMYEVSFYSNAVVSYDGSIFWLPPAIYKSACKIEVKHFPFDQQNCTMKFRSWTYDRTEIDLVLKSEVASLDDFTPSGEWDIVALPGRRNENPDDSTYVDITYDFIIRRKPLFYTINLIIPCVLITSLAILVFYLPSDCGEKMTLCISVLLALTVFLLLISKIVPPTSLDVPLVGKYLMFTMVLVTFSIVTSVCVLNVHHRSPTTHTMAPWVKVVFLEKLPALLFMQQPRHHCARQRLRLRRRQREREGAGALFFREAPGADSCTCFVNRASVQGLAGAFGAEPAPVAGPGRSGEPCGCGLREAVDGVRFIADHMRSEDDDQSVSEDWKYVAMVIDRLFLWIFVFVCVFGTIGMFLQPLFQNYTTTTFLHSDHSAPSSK
Experimental: Preparation of membranes from SH-EP1/human α4β2 clonal cells: Cell pellets from 40 150 mm culture dishes were pooled, and homogenized by Polytron (Kinematica GmbH, Switzerland) in 20 milliliters of ice-cold preparative buffer. The homogenate was centrifuged at 48,000 g for 20 minutes at 4° C. The resulting pellet was re-suspended in 20 mL of ice-cold preparative buffer and stored at −20° C.
(§1) On the day of the assay, the frozen membranes were thawed and spun at 48,000×g for 20 min. The supernatant was decanted and discarded. The pellet was resuspended in Dulbecco's phosphate buffered saline (PBS, Life Technologies) pH 7.4 and homogenized with the Polytron for 6 seconds. Protein concentrations were determined using a Pierce BCA Protein Assay Kit, with bovine serum albumin as the standard (Pierce Chemical Company, Rockford, Ill.).
(§2) Incubation was terminated by rapid filtration on a multi-manifold tissue harvester (Brandel, Gaithersburg, Md.) using GF/B filters presoaked in 0.33% polyethyleneimine (w/v) to reduce non-specific binding. Tissue was rinsed 3 times in PBS, pH 7.4. Scintillation fluid was added to filters containing the washed tissue and allowed to equilibrate. Filters were then counted to determine radioactivity bound to the membranes by liquid scintillation counting (2200CA Tri-Carb LSC, Packard Instruments, 50% efficiency or Wallac Trilux 1450 MicroBeta, 40% efficiency, Perkin Elmer).
(§3) Data were expressed as disintegrations per minute (DPMs). Within each assay, each point had 2-3 replicates. The replicates for each point were averaged and plotted against the log of the drug concentration. IC50, which is the concentration of the compound that produces 50% inhibition of binding, was determined by least squares non-linear regression. Ki values were calculated using the Cheng-Prussof equation (1973): […]

rat α4β2 nAChR subtype = molecular target: T3, rat α4β2 nAChR subtype (Rattus norvegicus, UniProt P09483+P12390); assay: Radioligand binding ([3H]nicotine) at rat α4β2 nAChR, rat cortex membranes; conditions: read-out: Rat α4β2 Ki
T3 construct: Preparation of membranes from rat cortex; from tissue; host or cells: rat cerebral cortex membranes
T3 sequence (P09483 31-630): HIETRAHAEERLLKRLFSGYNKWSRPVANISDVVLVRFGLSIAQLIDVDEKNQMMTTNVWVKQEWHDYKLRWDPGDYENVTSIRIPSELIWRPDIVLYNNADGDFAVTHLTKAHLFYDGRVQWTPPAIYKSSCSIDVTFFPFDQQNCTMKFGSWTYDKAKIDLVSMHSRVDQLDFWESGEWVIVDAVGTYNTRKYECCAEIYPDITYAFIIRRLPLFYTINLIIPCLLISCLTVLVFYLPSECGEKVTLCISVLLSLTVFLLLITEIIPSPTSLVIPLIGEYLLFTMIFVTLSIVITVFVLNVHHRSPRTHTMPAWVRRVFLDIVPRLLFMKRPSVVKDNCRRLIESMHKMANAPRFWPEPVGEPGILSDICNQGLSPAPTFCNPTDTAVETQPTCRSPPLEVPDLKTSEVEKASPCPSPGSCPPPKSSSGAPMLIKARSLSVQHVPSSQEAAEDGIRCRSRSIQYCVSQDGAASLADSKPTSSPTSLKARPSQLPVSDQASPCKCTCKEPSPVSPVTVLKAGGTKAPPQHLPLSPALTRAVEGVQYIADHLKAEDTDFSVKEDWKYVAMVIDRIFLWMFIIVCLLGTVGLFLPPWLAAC
T3 sequence (P12390 25-500): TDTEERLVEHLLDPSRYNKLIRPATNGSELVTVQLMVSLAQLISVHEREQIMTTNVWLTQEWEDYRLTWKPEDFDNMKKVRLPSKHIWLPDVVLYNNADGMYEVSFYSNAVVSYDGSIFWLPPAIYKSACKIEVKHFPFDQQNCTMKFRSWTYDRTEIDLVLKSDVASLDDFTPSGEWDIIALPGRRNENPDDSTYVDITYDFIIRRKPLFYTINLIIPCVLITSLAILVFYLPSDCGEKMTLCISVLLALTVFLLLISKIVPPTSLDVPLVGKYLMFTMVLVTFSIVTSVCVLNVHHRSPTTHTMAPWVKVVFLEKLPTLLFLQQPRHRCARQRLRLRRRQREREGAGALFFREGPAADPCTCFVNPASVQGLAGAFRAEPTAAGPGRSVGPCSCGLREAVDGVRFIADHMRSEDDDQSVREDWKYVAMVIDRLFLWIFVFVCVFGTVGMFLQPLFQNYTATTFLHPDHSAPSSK
Experimental: Preparation of membranes from rat cortex: Rats (female, Sprague-Dawley), weighing 150-250 g, were maintained on a 12 h light/dark cycle and were allowed free access to water and food supplied by PMI Nutrition International, Inc. Animals were anesthetized with 70% CO2, and then decapitated. Brains were removed and placed on an ice-cold platform. The cerebral cortex was removed and placed in 20 volumes (weight:volume) of ice-cold preparative buffer (137 mM NaCl, 10.7 mM KCl, 5.8 mM KH2PO4, 8 mM Na2HPO4, 20 mM HEPES (free acid), 5 mM iodoacetamide, 1.6 mM EDTA, pH 7.4); PMSF, dissolved in methanol to a final concentration of 100 μM, was added and the suspension was homogenized by Polytron. The homogenate was centrifuged at 18,000×g for 20 min at 4° C. and the resulting pellet was re-suspended in 20 volumes of ice-cold water. After 60 min incubation on ice, a new pellet was collected by centrifugation at 18,000×g for 20 min at 4° C. The final pellet was re-suspended in 10 volumes of buffer and stored at −20° C.
as §1, §2, §3

[1] = rat hippocampus membranes, 5 nM [3H]MLA, read-out: Rat α7 Ki

SMILES | Ki (rat α7 nAChR subtype) [nM] | Ki (human α4β2 nAChR subtype) [nM] | Ki (rat α4β2 nAChR subtype) [nM] | Ki (rat α7 nAChR subtype; [1]) [nM]
O=C(C1CC=CC1)N1CC2CNC(C2)C1 (stereo not drawn) | 64 | 13 | 11 | 
O=C(C1CC1)N1CC2CNC(C2)C1 (stereo not drawn) |  | 1.5 | 1.3 | 290
O=C(C1CC1)N1C[C@@H]2CN[C@@H](C2)C1 | 98 | 7.3 | 14 | 
O=C(C1CC1)N1C[C@H]2CN[C@H](C2)C1 |  | 0.8 | 0.5 | 190
O=C(C1CC=CC1)N1C[C@H]2CN[C@H](C2)C1 | 65 | 4.4 | 5.5 | 
O=C(C1CCC1)N1C[C@@H]2CN[C@@H](C2)C1 | 370 | 13 | 14 | 
O=C(C1CCC1)N1C[C@H]2CN[C@H](C2)C1 | 440 | 1.6 | 2.2 | 
CCC(=O)N1C[C@@H]2CN[C@@H](C2)C1 | 2000 | 24 | 30 | 
CCCC(=O)N1C[C@@H]2CN[C@@H](C2)C1 | 160 | 18 | 18 | 
CC(C)C(=O)N1C[C@@H]2CN[C@@H](C2)C1 | 220 | 380 | 380 | 
O=C(C1CCCC1)N1C[C@@H]2CN[C@@H](C2)C1 |  | 160 | 130 | 130
CC1CC1C(=O)N1C[C@@H]2CN[C@@H](C2)C1 (stereo partly drawn) | 460 | 6.8 | 4.8 | 
O=C(C1CC1(F)F)N1C[C@@H]2CN[C@@H](C2)C1 (stereo partly drawn) |  | 11 | 11 | 670
CCOC(=O)N1C[C@H]2CN[C@H](C2)C1 | 4200 | 15 | 11 | 
O=C(CCF)N1C[C@@H]2CN[C@@H](C2)C1 |  | 27 | 31 | 950
CCOC(=O)N1C[C@@H]2CNC[C@H]1C2 | > 10000 | 78 | 32 | 
O=C([C@H]1C[C@H]1F)N1C[C@H]2CNC[C@@H]1C2 | 1300 | 68 | 170 | 
